IC50 data for 23 compounds are collected here from patent US9655887B2, “Pharmaceutical composition and the use thereof, and application regime of said pharmaceutical composition for on-demand contraception” (BAYER PHARMA AKTIENGESELLSCHAFT, priority 2013, dated 2017).

As usually defined, the IC50 is the concentration needed to halve the response being measured.

The experiment deals with EP2 subtype of the human PGE2 receptor (hEP2 receptor) (Homo sapiens, UniProt P43116). Nature of the experiment: cAMP antagonism test, human prostaglandin E2 (subtype EP2) receptor signal. It is filed as cell-based. The text has this:
1. Detection of Antagonism to the Human Prostaglandin E2 (Subtype EP2) Receptor Signal
The binding of PGE2 to the EP2 subtype of the human PGE2 receptor induces the activation of membrane-located adenylate cyclases and leads to the formation of cAMP. In the presence of the phosphodiesterase inhibitor IBMX, the cAMP accumulated owing to this stimulation and released by cell lysis is used in a competitive detection method. In this test, the cAMP present in the lysate competes with a fluorescence-labelled cAMP (cAMP-d2) for binding to an Eu cryptate-labelled anti-cAMP antibody.
In the absence of cellular cAMP, a maximal signal is produced, which is attributable to the binding of this cAMP-d2 molecule to the antibody. After excitation of the […] at 337 nm, there is a fluorescence resonance energy transfer (FRET) to the Eu cryptate molecules of the anti-cAMP antibody (labelled therewith), followed by a long-lasting emission signal at 665 nm (and at […]). Both signals are measured in a suitable measurement instrument with a time delay, i.e. after decay of the background fluorescence. Any increase in the low FRET signal caused by prostaglandin E2 administration (measured as well ratio change=emission665nm/emission620nm*10000) indicates the action of antagonists.
1.2.1. Test for Antagonism (Data Per Well of a 384-Well Plate):
To a test plate with the substance solutions already added (0.05 μl; 100% DMSO, concentration range from 0.8 nM-16.5 nM) were added 4 μl of a cAMP-d2/cell suspension (625000 cells/ml). After a 20-minute preincubation at room temperature (RT), 2 μl of a 3×PGE2 solution (1.5 nM, in PBS-IBMX) were added and incubated in the presence of the agonist for a further 60 mins at RT (volume: […]). Next the reaction was stopped by addition of 2 μl of lysis buffer and incubated for a further 20 mins at RT before the actual measurement (volume: ˜8 μl).

EP2 subtype of the human PGE2 receptor (hEP2 receptor), sequence (P43116 whole entry): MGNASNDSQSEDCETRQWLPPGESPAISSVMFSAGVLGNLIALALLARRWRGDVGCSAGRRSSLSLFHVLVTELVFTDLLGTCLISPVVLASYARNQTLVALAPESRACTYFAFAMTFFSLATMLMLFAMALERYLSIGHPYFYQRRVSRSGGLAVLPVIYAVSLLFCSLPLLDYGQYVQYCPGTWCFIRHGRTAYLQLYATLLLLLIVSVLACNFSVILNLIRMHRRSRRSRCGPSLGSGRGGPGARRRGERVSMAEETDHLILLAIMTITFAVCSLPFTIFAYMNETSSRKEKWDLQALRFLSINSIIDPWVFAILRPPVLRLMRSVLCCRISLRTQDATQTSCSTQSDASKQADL

`COCCNC(=O)c1ccc2nn(CC3CCN(C(=O)c4ccc(Oc5ccc(OC)cc5)cc4)CC3)cc2c1C` [Example E17, N-(2-methoxyethyl)-2-({1-[4-(4-methoxyphenoxy)benzoyl]piperidin-4-yl}methyl)-4-methyl-2H-indazole-5-carboxamide]: the IC50 is more than 50 nM.

The compound `COCCNC(=O)c1ccc2nn(CC3CCN(C(=O)c4ccc(Oc5ccccc5)cc4)CC3)cc2c1C` [Example E18, N-(2-methoxyethyl)-4-methyl-2-{[1-(4-phenoxybenzoyl)piperidin-4-yl]methyl}-2H-indazole-5-carboxamide] came in with an IC50 of more than 50 nM.

The compound `COCCNC(=O)c1ccc2nn(CC3CCN(C(=O)c4ccc(C5CC5)cc4)CC3)cc2c1C` [Example E19, 2-{[1-(4-cyclopropylbenzoyl)piperidin-4-yl]methyl}-N-(2-methoxyethyl)-4-methyl-2H-indazole-5-carboxamide] registered an IC50 of more than 50 nM.

For `COCCNC(=O)c1ccc2nn(CC3CCN(C(=O)c4ccc(OC)cc4)CC3)cc2c1C` [Example E20, 2-{[1-(4-methoxybenzoyl)piperidin-4-yl]methyl}-N-(2-methoxyethyl)-4-methyl-2H-indazole-5-carboxamide], the IC50 is more than 50 nM.

`COCCNC(=O)c1ccc2nn(CC3CCN(C(=O)c4ccc(F)cc4)CC3)cc2c1C` [Example E21, 2-{[1-(4-fluorobenzoyl)piperidin-4-yl]methyl}-N-(2-methoxyethyl)-4-methyl-2H-indazole-5-carboxamide] returned an IC50 of more than 50 nM.

`COCCNC(=O)c1ccc2nn(CC3CCN(C(=O)c4ccc(C(F)(F)F)cc4)CC3)cc2c1C` [Example E22, N-(2-methoxyethyl)-4-methyl-2-({1-[4-(trifluoromethyl)benzoyl]piperidin-4-yl}-methyl)-2H-indazole-5-carboxamide] came in with an IC50 of more than 50 nM.

As for `COCCNC(=O)c1ccc2nn(CC3CCN(C(=O)c4ccc(S(=O)(=O)C(F)(F)F)cc4)CC3)cc2c1C` [Example E24, N-(2-methoxyethyl)-4-methyl-2-[(1-{4-[(trifluoromethyl)sulphonyl]benzoyl}piperidin-4-yl)methyl]-2H-indazole-5-carboxamide], the IC50 was more than 50 nM.

The compound `COCCNC(=O)c1ccc2nn(CC3CCN(C(=O)c4cccc(C(F)(F)F)c4)CC3)cc2c1C` [Example E25] yielded a concentration for half-maximal inhibition (IC50) of more than 50 nM.

Turning to `COCCNC(=O)c1ccc2nn(CC3CCN(C(=O)c4cccc(C)c4)CC3)cc2c1C` [Example E26, N-(2-methoxyethyl)-4-methyl-2-{[1-(3-methylbenzoyl)piperidin-4-yl]methyl}-2H-indazole-5-carboxamide], the IC50 was more than 50 nM.

`COCCNC(=O)c1ccc2nn(CC3CCN(C(=O)c4cccc(Cl)c4)CC3)cc2c1C` [Example E27, 2-{[1-(3-chlorobenzoyl)piperidin-4-yl]methyl}-N-(2-methoxyethyl)-4-methyl-2H-indazole-5-carboxamide] returned an IC50 of more than 50 nM.

With `COCCNC(=O)c1ccc2nn(CC3CCN(C(=O)c4ccc(OC5CCCC5)cc4)CC3)cc2c1C` [Example E29, 2-({1-[4-(cyclopentyloxy)benzoyl]piperidin-4-yl}methyl)-N-(2-methoxyethyl)-4-methyl-2H-indazole-5-carboxamide], the IC50 is more than 50 nM.

`COCCNC(=O)c1ccc2nn(CC3CCN(C(=O)c4ccc(C(F)F)cc4)CC3)cc2c1C` [Example E30, 2-({1-[4-(difluoromethyl)benzoyl]piperidin-4-yl}methyl)-N-(2-methoxyethyl)-4-methyl-2H-indazole-5-carboxamide] gave an IC50 of more than 50 nM.

Compound `COCCNC(=O)c1ccc2nn(CC3CCN(C(=O)c4ccc(C#N)cc4)CC3)cc2c1C` [Example E31, 2-{[1-(4-cyanobenzoyl)piperidin-4-yl]methyl}-N-(2-methoxyethyl)-4-methyl-2H-indazole-5-carboxamide] registered a concentration for half-maximal inhibition (IC50) of more than 50 nM.

As to `COCCNC(=O)c1ccc2nn(CC3CCN(C(=O)c4ccc(-n5cccn5)cc4)CC3)cc2c1C` [Example E36, N-(2-methoxyethyl)-4-methyl-2-({1-[4-(1H-pyrazol-1-yl)benzoyl]piperidin-4-yl}-methyl)-2H-indazole-5-carboxamide], the IC50 is more than 50 nM.

For `COCCNC(=O)c1ccc2nn(CC3CCN(C(=O)c4ccc(OC(F)F)cc4F)CC3)cc2c1C` [Example E38, 2-({1-[4-(difluoromethoxy)-2-fluorobenzoyl]piperidin-4-yl}methyl)-N-(2-methoxy-ethyl)-4-methyl-2H-indazole-5-carboxamide], the IC50 was more than 50 nM.

With `COCCNC(=O)c1ccc2nn(CC3CCN(C(=O)c4ccc(N5CCCC5)cc4F)CC3)cc2c1C` [Example E39, 2-({1-[2-fluoro-4-(pyrrolidin-1-yl)benzoyl]piperidin-4-yl}methyl)-N-(2-methoxyethyl)-4-methyl-2H-indazole-5-carboxamide], the IC50 was more than 50 nM.

`COCCNC(=O)c1ccc2nn(CC3CCN(C(=O)c4ccc(-c5ccc(F)cc5)cc4F)CC3)cc2c1C` [Example E40, 2-({1-[(3,4′-difluorobiphenyl-4-yl)carbonyl]piperidin-4-yl}methyl)-N-(2-methoxyethyl)-4-methyl-2H-indazole-5-carboxamide] gave an IC50 of more than 50 nM.

For `COCCNC(=O)c1ccc2nn(CC3CCN(C(=O)c4ccc(-c5ccc(OC)cc5)cc4F)CC3)cc2c1C` [Example E41, 2-({1-[(3-fluoro-4′-methoxybiphenyl-4-yl)carbonyl]piperidin-4-yl}methyl)-N-(2-methoxyethyl)-4-methyl-2H-indazole-5-carboxamide], the IC50 was more than 50 nM.

`COCCNC(=O)c1ccc2nn(CC3CCN(C(=O)c4ccc(-c5ccccc5OC(F)(F)F)cc4F)CC3)cc2c1C` [Example E44, 2-[(1-{[3-fluoro-2′-(trifluoromethoxy)biphenyl-4-yl]carbonyl}piperidin-4-yl)methyl]-N-(2-methoxyethyl)-4-methyl-2H-indazole-5-carboxamide] gave an IC50 of more than 50 nM.

Compound `COCCNC(=O)c1ccc2nn(CC3CCN(C(=O)c4ccc(-c5ccccc5F)cc4)CC3)cc2c1C` [Example E45, 2-({1-[(2′-fluorobiphenyl-4-yl)carbonyl]piperidin-4-yl}methyl)-N-(2-methoxyethyl)-4-methyl-2H-indazole-5-carboxamide] had an IC50 of more than 50 nM.

With `COCCNC(=O)c1ccc2nn(CC3CCN(C(=O)c4ccc(-c5ccc(F)cc5F)cc4)CC3)cc2c1C` [Example E46, 2-({1-[(2′,4′-difluorobiphenyl-4-yl)carbonyl]piperidin-4-yl}methyl)-N-(2-methoxy-ethyl)-4-methyl-2H-indazole-5-carboxamide], the IC50 was more than 50 nM.

As for `COCCNC(=O)c1ccc2nn(CC3CCN(C(=O)c4ccc(-c5ccccc5)c(F)c4)CC3)cc2c1C` [Example E47, 2-({1-[(2-fluorobiphenyl-4-yl)carbonyl]piperidin-4-yl}methyl)-N-(2-methoxyethyl)-4-methyl-2H-indazole-5-carboxamide], the IC50 is more than 50 nM.

For the compound `COCCNC(=O)c1ccc2nn(CC3CCN(C(=O)c4ccc(-c5ccccc5C)cc4)CC3)cc2c1C` [Example E48, N-(2-methoxyethyl)-4-methyl-2-({1-[(2′-methylbiphenyl-4-yl)carbonyl]piperidin-4-yl}-methyl)-2H-indazole-5-carboxamide], the IC50 is more than 50 nM.
